Key:
[1] = Caco-2 cell monolayer permeability; format: in vitro ADME, human; conditions: human, Caco-2; read-out: Asymmetry index
Procedure: (§1) The MultiScreen Caco-2 (ATCC cat. # HTB-37) test system (Millipore, St. Charles, MO, USA) was used to study the transport through a cell monolayer, according to the manufacturer’s instructions. Briefly, a study of transport from the apical membrane to the basolateral (A-B) area and in the opposite direction (B-A) was carried out on a 21-day culture of Caco-2 at a 1 µM concentration of the tested compound for 2 h. Monolayer integrity was verified by measuring electrical resistance (TEER) using a Millicell-ERS instrument. A TEER value of at least 3 KOhm/well was determined to be acceptable.

[2] = tested on: Caco-2 cells; test: Caco-2 cell monolayer permeability; format: in vitro ADME, human
Procedure: as §1

[3] = Stability in human plasma; format: in vitro ADME; conditions: 37 °C, 1 μM
Procedure: For the experiment, human and rat plasma (SD) was thawed at room temperature and centrifuged for 5 min at 1500× g. Eucatropine (Sigma-Aldrich, USA), which is unstable in human and rat plasma, was used as a control compound.
For stability evaluation, 3 μL of 100X solutions of the tested or control compound (0.1 mM) was added to 297 μL of the corresponding plasma (prewarmed to 37 °C) to a final concentration of 1 μM. The plasma samples were incubated with the test and control compounds in the 0.65 mL microtubes at 37 °C and under 300 rpm rotation. After 15, 30, 60, and 240 min, 30 μL aliquots were taken into 1.1 mL microtubes with 180 μL of chilled acetonitrile with an internal standard of 200 ng/mL tolbutamide (Fluka). The tubes were stirred and kept at 4 °C for 15 min, then centrifuged at 1500× g for 10 min. A total of 200 μL of the supernatants was transferred into microtubes and stored at −70 °C until UPLC–MS/MS analysis.

**Q.** For CCOC(=O)c1[nH]c2cc(F)ccc2c1/N=N/N1CCCC1 [BX-SI043, Ethyl (E)-6-fluoro-3-(pyrrolidin-1-yldiazenyl)-1H-indole-2-carboxylate], which efflux ratio at 2 h, 1 µM [1] is on record?
**A.** The efflux ratio at 2 h, 1 µM was 0.37.

**Q.** What about the “Papp A-B” value ([2]; Caco-2, 1 µM, 2 h) of the same molecule?
**A.** Its value is 0.51 10^-6 sm/s.

**Q.** And the “Papp B-A” value ([2]; Caco-2, 1 µM, 2 h)?
**A.** The value was 0.19 10^-6 sm/s.

**Q.** What about the Mass balance ([2]; Caco-2, first value: A-B / apical) of the same molecule?
**A.** The Mass balance was 49%.

**Q.** What about the Mass balance ([2]; Caco-2, first value: A-B / apical, listed as ВХ-SI043) of the same molecule?
**A.** Its Mass balance is 49%.

**Q.** And the Mass balance ([2]; Caco-2, second value: B-A / basolateral)?
**A.** The Mass balance was 25.1%.

**Q.** And the “metabolized in human plasma after 1 h” value ([3]; 1 h)?
**A.** The value was “about 50%”.

**Q.** What about the “metabolized in human plasma after 4 h” value ([3]; 4 h) of the same molecule?
**A.** Its value is 97%.

Source: article PMC11899342, “Novel Triazeneindole Antibiotics: Synthesis and Hit-to-Lead Optimization” (International Journal of Molecular Sciences, 2025)
